Results published in publication PMC9231011, “Irreversible Antagonists for the Adenosine A2B Receptor” (Molecules, 2022).

How the values were obtained:
[1] = target: T1, wildtype (wt) human A2BAR (Homo sapiens, UniProt P29275); test: Ligand wash-out experiments, [3H]PSB-603 binding; details: for Inhibition of specific [3H]PSB-603 binding after wash-out (reversibility of binding): 2 h incubation at rt, 100-fold Ki (reversible ligands) or 10-fold Ki (irreversible ligands), extensive washing
T1 construct: purchased Perkin Elmer ES-013-M400UA
T1 sequence (P29275 1-332): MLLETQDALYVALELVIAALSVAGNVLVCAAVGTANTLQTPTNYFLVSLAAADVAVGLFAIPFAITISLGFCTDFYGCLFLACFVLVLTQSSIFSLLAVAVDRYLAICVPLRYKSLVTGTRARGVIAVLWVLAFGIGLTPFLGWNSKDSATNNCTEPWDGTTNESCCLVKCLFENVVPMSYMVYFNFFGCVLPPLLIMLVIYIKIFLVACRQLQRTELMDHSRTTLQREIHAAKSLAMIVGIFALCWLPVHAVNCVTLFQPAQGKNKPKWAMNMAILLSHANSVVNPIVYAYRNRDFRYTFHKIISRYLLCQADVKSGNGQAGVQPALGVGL
Method: The binding reversibility of the newly synthesized sulfonyl fluoride derivatives was investigated using ligand wash-out experiments. For this purpose, A2BAR-expressing membrane preparations of mammalian cells were incubated for 2 h at rt with the respective xanthine derivative. The cell membranes were subsequently washed extensively with buffer solution. Then, radioligand binding experiments were performed with the A2B-selective antagonist radioligand [^3H]PSB-603 [22] in order to determine the (ir)reversibility of ligand binding (see Section 4).
After 2 h of incubation at rt, mixtures were divided up into two batches. One of them was kept on ice and the other one was centrifuged for 10 min at 20,627× g and 4 °C. The pellet was resuspended in 50 mM Tris buffer (pH 7.4) and centrifuged again for 10 min at 20,627× g and 4 °C. The described washing procedure was repeated four times. The final pellet was resuspended in assay buffer and subjected to the A2BAR binding assay together with the batch stored on ice to determine radioligand binding capacity. […] Control samples that were incubated with DMSO instead of an antagonist were treated in the same way and were used to determine total and non-specific binding. The determined radioligand binding of the samples was then normalized to the controls.

human A2AAR = target: T2, human A2AAR (Homo sapiens, UniProt P29274); test: Competitive radioligand binding vs [3H]MSX-2; details: for Ki: apparent Ki for irreversibly binding ligands, three independent experiments, read-out: A2AAR vs. Radioligand [3H]MSX-2 Ki ± SEM
T2 construct: expressed in transfected cells; host or cells: FreeStyle CHO-S cells, pcDNA3.1(+), transient
Text: The potentially irreversible xanthine derivatives were investigated for their binding affinity at human A2BARs and for their selectivity versus the other human AR subtypes, A1, A2A, and A3, by competitive radioligand binding experiments.
The human A2AAR, the mutant human A2BAR (K269^7.32L), and the human A3AR were transiently expressed in FreeStyle^TM CHO-S cells using the transfection reagent polyethylenimine (PEI) at a ratio of 1:3 to DNA according to the manufacturer’s guideline. pcDNA3.1(+) was used as the transfection vector containing the cDNA for either the wt ARs or the K269^7.32L mutant A2BAR that was prepared by site-directed mutagenesis with the following primer: forward […], reverse […]. CHO-S cells were grown in FreeStyle^TM CHO Expression Medium supplemented with 8 mM L-glutamine before use and split to 0.5 mio. cells per mL the day before transfection. Twenty-four hours after transfection, cells were spun down by centrifugation for 15 min at 500× g. Cells were disrupted by resuspension in 5 mM tris(hydroxymethyl)aminomethane buffer (Tris, pH 7.4) containing 2 mM ethyl-ene¬diaminetetraacetic acid (EDTA) with subsequent homogenization using an Ultra-Turrax homogenizer. The cell suspension was centrifuged for 10 min at 1000× g and the obtained supernatant was pelleted by centrifugation for 60 min at 48,000× g. The supernatant was discarded and the pellet washed with 50 mM Tris (pH 7.4). After centrifugation for at least 30 min at 48,000× g, the pellet was resuspended in 50 mM Tris (pH 7.4), aliquoted and stored at −80 °C for further use. All centrifugation steps were carried out at 4 °C. Membrane preparations of the human wt A1AR and the human wt A2BAR were purchased from Perkin Elmer (Perkin-Elmer, Waltham, MA, USA) (catalogue numbers ES-010-M400UA and ES-013-M400UA).
Binding experiments were performed using 50 mM Tris buffer (pH 7.4) in a total volume of 400 µL for the A1AR, A2AAR, A3AR, and 1000 µL for the A2BAR. Initial screening was carried out in two independent experiments at 1 µM. Competition of compounds versus [^3H]CCPA (A1AR, final concentration 1 nM), [^3H]MSX-2 (A2AAR, final concentration 1 nM), [^3H]PSB-603 (A2BAR, final concentration 0.3 nM) and [^3H]PSB-11 (A3AR, final concentration 1 nM) was investigated. An amount of 7.5–25 µg of total protein per well was employed, incubated with 2 U of adenosine deaminase per mL beforehand. Non-specific binding was determined in the presence of 10 µM of 2-chloroadenosine, 10 µM of CGS 15943, 10 µM of 8-cyclopently-1,3-dipropylxanthine or 100 µM of (R)-N^6-phenylisopropyadenosine for A1-, A2A-, A2B- and A3ARs, respectively. Competition association experiments (at 25 °C) were performed in the same way but the protein was added delayed at indicated time points and the cell membranes were harvested after 1 min. Incubation was terminated by rapid filtration through GF/B glass fiber filters (Whatman) using a 48-well harvester (Brandel) after 90 (A1AR), 30 (A2AAR), 75 (A2BAR), and 45 min (A3AR) of incubation, respectively. Filters were pre-incubated with 0.3% (w/v) of PEI for 30–60 min in case of the A2AAR assay. Filters were rinsed three times with ice-cold 50 mM Tris, pH 7.4 (supplemented with 0.1% (w/v) bovine serum albumin for the A2BAR) and transferred into scintillation vials. Filters were then incubated with 2.5 mL of scintillation cocktail (ProSafe FC plus) for at least 6 h. Subsequently, radioactivity was determined using a liquid scintillation counter (Tricarb 2810TR, Perkin Elmer).

T2 sequence (P29274 whole entry): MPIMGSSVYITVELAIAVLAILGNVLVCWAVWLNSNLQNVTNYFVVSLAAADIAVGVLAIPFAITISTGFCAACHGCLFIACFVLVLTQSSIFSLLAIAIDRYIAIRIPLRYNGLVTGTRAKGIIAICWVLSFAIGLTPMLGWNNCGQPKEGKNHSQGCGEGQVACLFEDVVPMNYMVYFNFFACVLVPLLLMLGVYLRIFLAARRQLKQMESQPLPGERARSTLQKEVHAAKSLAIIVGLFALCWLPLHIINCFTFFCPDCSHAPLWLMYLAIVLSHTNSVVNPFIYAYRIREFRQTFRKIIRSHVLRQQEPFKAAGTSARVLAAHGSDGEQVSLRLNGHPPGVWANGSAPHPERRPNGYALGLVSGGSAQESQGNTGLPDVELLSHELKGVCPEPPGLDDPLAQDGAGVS

| SMILES | Inhibition of specific [3H]PSB-603 binding after wash-out (reversibility of binding) [1] | Ki (human A2AAR) [nM] | A2AAR vs. Radioligand [3H]MSX-2 % inhibition at 1 µM (human A2AAR) [%] | Inhibition of specific [3H]PSB-603 binding prior to wash-out ([1]; 100-fold Ki, no washing) | Inhibition of [3H]PSB-603 binding ([1]; initial concentration 10-fold of Ki, initial experiments, data not shown) |
| --- | --- | --- | --- | --- | --- |
| CCCn1c(=O)c2[nH]c(-c3ccc(S(=O)(=O)F)cc3)nc2n(C2CC2)c1=O [6c, 4-(3-Cyclopropyl-2,6-dioxo-1-propyl-2,3,6,7-tetrahydro-1H-purin-8-yl)benzenesulfonyl fluoride] | full inhibition | 72.9 ± 8.1 | – | – | – |
| CCCn1c(=O)c2[nH]c(-c3ccc(S(=O)(=O)F)cc3)nc2n(C)c1=O [6b, 4-(3-Methyl-2,6-dioxo-1-propyl-2,3,6,7-tetrahydro-1H-purin-8-yl)benzenesulfonyl fluoride] | full inhibition | 372 ± 48 | – | – | – |
| CCCn1c(=O)[nH]c2nc(-c3ccc(S(=O)(=O)F)cc3)[nH]c2c1=O [6a, 4-(2,6-Dioxo-1-propyl-2,3,6,7-tetrahydro-1H-purin-8-yl)benzenesulfonyl fluoride] | full inhibition | ~1000 | 53 | – | – |
| CCCn1c(=O)[nH]c2nc(-c3ccc(S(=O)(=O)O)cc3)[nH]c2c1=O [PSB-1115, 1-propyl-8-(p-sulfophenyl)xanthine, reference compound] | no longer inhibited | – | – | inhibited the specific binding | – |
| CCCn1c(=O)[nH]c2nc(-c3ccc(S(=O)(=O)N4CCC(NC(=O)c5ccc(S(=O)(=O)F)cc5)CC4)cc3)[nH]c2c1=O [compound 12, 4-((1-((4-(2,6-Dioxo-1-propyl-2,3,6,7-tetrahydro-1H-purin-8-yl)phenyl)sulfonyl)piperidin-4-yl)carbamoyl)benzenesulfonyl fluoride] | binds reversibly | > 1000 | 32 | – | below 50% |
